Experimental data published in patent publication US20230203059A1, “MACROCYCLIC JAK INHIBITOR AND USES THEREOF” (Biopolar Hongye (Guangdong) Pharmaceutical Co. Ltd., priority 2020, published 2023).

What was measured:
Type in all cases: biochemical
TYK2 = TYK2 (Homo sapiens, UniProt P29597); assay: JAK kinase activity, homogeneous time-resolved fluorescence (TYK2 reaction system); details: ATP 2 μM, TYK2 protein 0.2 ng/μL; read-out: TYK 2 activity
In short: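 Activity read as the 665 nm/615 nm ratio after adding EDTA-containing detection mix with anti-phospho-substrate antibody and XL-615. Beforehand, 0.2 ng/μL TYK2, 2 μM ATP, substrate and compound reacted 1 h in pH 7.0 Hepes buffer with MgCl2 and DTT. IC50 fitted with Hill-slope equation.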

JAK3 = biological target: T1, JAK3 (Homo sapiens, UniProt P52333); assay: JAK kinase activity, homogeneous time-resolved fluorescence (JAK3 reaction system); details: ATP 2 μM, JAK3 protein 0.04 ng/μL; read-out: JAK 3 activity
T1 sequence (P52333 1-1124): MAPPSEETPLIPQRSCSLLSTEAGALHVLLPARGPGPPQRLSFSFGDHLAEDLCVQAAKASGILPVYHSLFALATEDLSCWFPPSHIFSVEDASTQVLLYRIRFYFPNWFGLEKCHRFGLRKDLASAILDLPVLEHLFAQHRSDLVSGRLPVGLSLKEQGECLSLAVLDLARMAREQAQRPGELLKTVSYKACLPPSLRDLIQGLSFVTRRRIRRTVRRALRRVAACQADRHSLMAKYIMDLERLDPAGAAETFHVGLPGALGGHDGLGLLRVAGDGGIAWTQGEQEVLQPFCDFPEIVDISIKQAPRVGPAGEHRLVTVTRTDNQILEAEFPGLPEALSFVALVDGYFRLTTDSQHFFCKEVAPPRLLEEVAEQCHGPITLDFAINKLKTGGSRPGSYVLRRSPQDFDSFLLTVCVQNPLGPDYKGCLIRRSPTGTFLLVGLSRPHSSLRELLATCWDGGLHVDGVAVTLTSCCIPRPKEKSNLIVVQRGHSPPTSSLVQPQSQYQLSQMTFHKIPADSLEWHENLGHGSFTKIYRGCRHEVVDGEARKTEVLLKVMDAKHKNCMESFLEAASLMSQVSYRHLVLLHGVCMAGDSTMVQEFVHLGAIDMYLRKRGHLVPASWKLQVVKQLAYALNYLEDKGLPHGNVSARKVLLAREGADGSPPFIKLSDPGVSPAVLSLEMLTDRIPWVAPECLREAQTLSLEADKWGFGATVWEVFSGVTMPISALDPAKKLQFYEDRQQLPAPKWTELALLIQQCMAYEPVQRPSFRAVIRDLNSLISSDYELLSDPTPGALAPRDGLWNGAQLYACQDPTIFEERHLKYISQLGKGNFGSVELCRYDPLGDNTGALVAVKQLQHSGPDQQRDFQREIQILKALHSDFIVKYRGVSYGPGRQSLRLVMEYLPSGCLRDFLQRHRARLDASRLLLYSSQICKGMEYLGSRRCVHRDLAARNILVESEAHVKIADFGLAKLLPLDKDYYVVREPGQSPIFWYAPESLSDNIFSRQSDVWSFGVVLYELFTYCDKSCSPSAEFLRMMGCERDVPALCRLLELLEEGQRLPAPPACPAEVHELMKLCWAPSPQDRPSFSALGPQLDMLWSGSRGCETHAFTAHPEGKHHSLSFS

JAK2 = JAK2 (Homo sapiens, UniProt O60674); assay: JAK kinase activity, homogeneous time-resolved fluorescence (JAK2 reaction system); details: ATP 2 μM, JAK2 protein 0.01 ng/μL
In short: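 IC50 derived by Hill-equation fit of the 665/615 nm time-resolved fluorescence ratio after EDTA-containing detection mix with anti-phosphosubstrate antibody. Preceding 1 h reaction contained 2 μM ATP, 0.01 ng/μL JAK2, substrate, 50 mM Hepes pH 7.0, 5 mM MgCl2, 1 mM DTT.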

JAK1 = JAK1 (Homo sapiens, UniProt P23458); assay: JAK kinase activity, homogeneous time-resolved fluorescence (JAK1 reaction system); details: ATP 2 μM, JAK1 protein 0.2 ng/μL; read-out: JAK 1 activity
In short: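 HTRF assay: JAK1 (0.2 ng/μL) with 2 μM ATP and substrate in 50 mM Hepes pH 7.0, 5 mM MgCl2, 1 mM DTT, 1 h. Phospho-substrate antibody/XL-615 detection with EDTA; 665/615 nm ratio, excitation 320 nm. IC50 from Hill-type fit against no-enzyme and no-compound controls.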

JAK2, sequence (O60674 whole entry): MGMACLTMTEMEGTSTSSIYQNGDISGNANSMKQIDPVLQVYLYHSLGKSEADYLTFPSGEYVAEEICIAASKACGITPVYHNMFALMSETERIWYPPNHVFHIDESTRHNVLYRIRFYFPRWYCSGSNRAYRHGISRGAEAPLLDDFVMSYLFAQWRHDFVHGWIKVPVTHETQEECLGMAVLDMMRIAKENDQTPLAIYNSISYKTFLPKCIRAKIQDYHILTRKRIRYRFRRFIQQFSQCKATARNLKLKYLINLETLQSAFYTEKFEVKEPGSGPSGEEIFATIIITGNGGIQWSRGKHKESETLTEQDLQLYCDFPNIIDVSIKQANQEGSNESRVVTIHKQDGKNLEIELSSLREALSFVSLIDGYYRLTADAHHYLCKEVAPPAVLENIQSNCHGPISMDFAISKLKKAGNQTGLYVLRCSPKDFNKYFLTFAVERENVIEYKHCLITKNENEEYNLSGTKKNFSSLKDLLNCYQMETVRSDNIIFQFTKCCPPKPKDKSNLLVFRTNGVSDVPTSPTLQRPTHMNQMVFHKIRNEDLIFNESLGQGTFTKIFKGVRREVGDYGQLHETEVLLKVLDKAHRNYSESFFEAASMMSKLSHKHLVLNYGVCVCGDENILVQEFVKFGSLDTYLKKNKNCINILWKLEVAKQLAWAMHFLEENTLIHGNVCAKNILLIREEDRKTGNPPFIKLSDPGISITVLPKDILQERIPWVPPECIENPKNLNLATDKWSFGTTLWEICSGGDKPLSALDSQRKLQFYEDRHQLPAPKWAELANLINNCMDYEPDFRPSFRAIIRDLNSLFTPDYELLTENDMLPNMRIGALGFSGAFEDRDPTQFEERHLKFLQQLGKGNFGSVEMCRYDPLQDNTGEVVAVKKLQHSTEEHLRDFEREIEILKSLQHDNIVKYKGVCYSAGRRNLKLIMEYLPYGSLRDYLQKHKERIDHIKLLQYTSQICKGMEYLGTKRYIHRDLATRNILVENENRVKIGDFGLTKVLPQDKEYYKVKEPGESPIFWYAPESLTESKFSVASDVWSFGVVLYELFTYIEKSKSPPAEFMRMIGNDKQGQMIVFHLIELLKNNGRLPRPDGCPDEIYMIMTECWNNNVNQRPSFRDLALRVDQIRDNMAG
JAK1, sequence (P23458 whole entry): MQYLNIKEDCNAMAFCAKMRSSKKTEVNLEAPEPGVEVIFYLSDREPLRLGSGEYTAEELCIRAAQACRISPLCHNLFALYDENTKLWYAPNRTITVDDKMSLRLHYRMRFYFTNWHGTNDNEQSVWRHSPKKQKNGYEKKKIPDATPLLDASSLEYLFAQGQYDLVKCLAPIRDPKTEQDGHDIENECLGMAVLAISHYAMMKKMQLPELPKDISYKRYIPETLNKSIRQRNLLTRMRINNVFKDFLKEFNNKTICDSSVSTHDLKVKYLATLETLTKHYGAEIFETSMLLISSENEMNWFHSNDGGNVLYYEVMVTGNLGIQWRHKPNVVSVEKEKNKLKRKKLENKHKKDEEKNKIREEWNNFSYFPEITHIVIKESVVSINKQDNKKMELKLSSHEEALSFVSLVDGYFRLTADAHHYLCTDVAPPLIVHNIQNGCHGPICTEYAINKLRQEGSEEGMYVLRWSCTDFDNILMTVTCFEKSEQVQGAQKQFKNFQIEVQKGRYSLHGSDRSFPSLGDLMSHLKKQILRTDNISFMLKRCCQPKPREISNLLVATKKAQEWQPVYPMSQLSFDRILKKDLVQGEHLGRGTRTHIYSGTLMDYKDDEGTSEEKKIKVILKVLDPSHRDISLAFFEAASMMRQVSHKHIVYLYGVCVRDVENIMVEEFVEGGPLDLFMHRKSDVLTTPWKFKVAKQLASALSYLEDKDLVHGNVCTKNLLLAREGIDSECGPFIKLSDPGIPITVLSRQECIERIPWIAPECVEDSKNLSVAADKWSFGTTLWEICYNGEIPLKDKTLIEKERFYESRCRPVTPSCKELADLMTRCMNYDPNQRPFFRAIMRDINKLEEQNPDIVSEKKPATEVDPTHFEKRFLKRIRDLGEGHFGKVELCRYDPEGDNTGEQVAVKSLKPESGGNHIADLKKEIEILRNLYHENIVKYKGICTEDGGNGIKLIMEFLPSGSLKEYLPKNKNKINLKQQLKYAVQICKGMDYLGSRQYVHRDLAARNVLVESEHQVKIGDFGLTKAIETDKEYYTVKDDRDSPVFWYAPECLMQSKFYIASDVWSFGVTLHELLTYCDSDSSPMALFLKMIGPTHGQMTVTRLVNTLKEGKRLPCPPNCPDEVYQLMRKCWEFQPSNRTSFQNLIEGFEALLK
TYK2, sequence (P29597 whole entry): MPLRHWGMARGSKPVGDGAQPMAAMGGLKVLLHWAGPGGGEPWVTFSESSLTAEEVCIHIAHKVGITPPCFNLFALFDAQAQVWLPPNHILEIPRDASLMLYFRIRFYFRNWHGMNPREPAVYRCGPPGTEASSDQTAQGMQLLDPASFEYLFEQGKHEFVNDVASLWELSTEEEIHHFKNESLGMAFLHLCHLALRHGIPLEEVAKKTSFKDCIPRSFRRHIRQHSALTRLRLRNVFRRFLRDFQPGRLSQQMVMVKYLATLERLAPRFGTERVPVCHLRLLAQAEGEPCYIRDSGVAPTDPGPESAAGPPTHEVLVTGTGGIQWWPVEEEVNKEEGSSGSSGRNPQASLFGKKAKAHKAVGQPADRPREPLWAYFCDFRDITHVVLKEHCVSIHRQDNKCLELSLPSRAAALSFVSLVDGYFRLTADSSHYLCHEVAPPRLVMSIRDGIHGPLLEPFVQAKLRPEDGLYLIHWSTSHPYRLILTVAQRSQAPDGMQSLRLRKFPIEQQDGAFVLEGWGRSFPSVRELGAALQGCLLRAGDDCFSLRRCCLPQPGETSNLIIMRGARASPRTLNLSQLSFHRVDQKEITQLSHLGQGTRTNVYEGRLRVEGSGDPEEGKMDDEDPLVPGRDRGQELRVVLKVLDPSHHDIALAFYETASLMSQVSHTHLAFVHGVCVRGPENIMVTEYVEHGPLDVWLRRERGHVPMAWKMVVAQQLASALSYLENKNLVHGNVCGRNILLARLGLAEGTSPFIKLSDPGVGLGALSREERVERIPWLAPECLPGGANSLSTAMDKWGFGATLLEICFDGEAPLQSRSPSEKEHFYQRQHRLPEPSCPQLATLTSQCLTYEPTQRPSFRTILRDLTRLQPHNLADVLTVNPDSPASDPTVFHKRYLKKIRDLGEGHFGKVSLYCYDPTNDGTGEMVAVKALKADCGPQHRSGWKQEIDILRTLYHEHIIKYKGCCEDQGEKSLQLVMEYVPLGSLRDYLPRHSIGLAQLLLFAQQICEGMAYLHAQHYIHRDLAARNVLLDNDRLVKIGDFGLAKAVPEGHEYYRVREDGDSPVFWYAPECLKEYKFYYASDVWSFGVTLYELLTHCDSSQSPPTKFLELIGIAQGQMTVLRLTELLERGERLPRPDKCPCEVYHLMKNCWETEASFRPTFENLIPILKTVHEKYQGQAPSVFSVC

| Compound | IC50 (TYK2) | IC50 (JAK3) | IC50 (JAK2) | IC50 (JAK1) |
| --- | --- | --- | --- | --- |
| COc1ccccc1COc1ccc2cc1COCCCCNC(=O)c1ccc(c(N)c1)-c1ccnc(n1)N2 [Example 156, 1^2-amino-4^4-((2-methoxybenzyl)oxy)-6-oxa-3,11-diaza-2(4,2)-pyri-midina-1(1,4),4(1,3)-dibenzena-cyclododecaphan-12-one] | > 10000 nM | 11 to 100 nM | 101 to 1000 nM | 1000 to 10000 nM |
| Nc1cc2ccc1-c1ccnc(n1)Nc1ccc(Oc3ccncc3)c(c1)COCCCCNC2=O [Example 143, 1^2-amino-4^4-(pyridin-4-oxy)-6-oxa-3,11-diaza-2(4,2)-pyrimidina-1(1,4),4(1,3)-dibenzenacyclododeca-phan-12-one] | > 10000 nM | 101 to 1000 nM | > 10000 nM | > 10000 nM |
| O=C1NCCCCOCc2cc(cc(N3CCSCC3)c2)Nc2nccc(n2)-c2ccc1cc2[N+](=O)[O-] [Example 76, 1^2-nitro-4^5-thiomorpholin-6-oxa-3,11-diaza-2(4,2)-pyrimidina-1(1,4),4(1,3)-dibenzenacyclododecaphan-12-one] | > 10000 nM | 101 to 1000 nM | 101 to 1000 nM | 1000 to 10000 nM |
| O=C1Nc2ccc(cc2)OCc2cc(ccc2OCC2CC(F)(F)C2)Nc2nccc(n2)-c2ccc1cc2[N+](=O)[O-] [Example 209, 4^4-((3,3-difluorocyclobutyl)methoxy)-1^2-nitro-6-oxa-3,8-diaza-2(4,2)-pyrimidina-1,7(1,4),4(1,3)-tri-benzenacyclononaphane-9-one] | > 10000 nM | 1000 to 10000 nM | 1000 to 10000 nM | > 10000 nM |
| CC1CCNC(=O)c2ccc(c([N+](=O)[O-])c2)-c2ccnc(n2)Nc2ccc(OCC3CC3)c(c2)COC1 (stereo not shown) [Example 144, 4^4-(cyclopropylmethoxy)-8-methyl-1^2-nitro-6-oxa-3,11-diaza-2(4,2)-pyrimidina-1(1,4),4(1,3)-dibenzena-cyclododecaphan-12-one] | > 10000 nM | 1000 to 10000 nM | > 10000 nM | > 10000 nM |
| Nc1cc2ccc1-c1ccnc(n1)Nc1ccc(OCc3cccc4c3CCO4)c(c1)COCCCCNC2=O [Example 151, 1^2-amino-4^4-((2,3-dihydrobenzofu-ran-4-yl)methoxy)-6-oxa-3,11-dia-za-2(4,2)-pyrimidina-1(14),4(1,3)-dibenzenacyclododecaphan-12-one] | 1000 to 10000 nM | 11 to 100 nM | 101 to 1000 nM | 1000 to 10000 nM |
| Nc1cc2ccc1-c1ccnc(n1)Nc1ccc(OCC3CC3)c(c1)COCCCCNC2=O [Example 112, 1^2-amino-4^4-(cyclopropylmethoxy)-6-oxa-3,11-diaza-2(4,2)-pyrimidi-na-1(1,4),4(1,3)-dibenzenacyclo-dodecaphan-12-one] | > 10000 nM | < 10 nM | 101 to 1000 nM | 1000 to 10000 nM |
| O=C1NCCCCOCc2cccc(c2)Nc2nccc(n2)-c2ccc1cc2F [Example 12, 1^2-fluoro-6-oxa-3,11-diaza-2(4,2)-py-rimidina-1(1,4),4(1,3)-dibenzenacy-clododecaphan-12-one] | 1000 to 10000 nM | 11 to 100 nM | 101 to 1000 nM | 101 to 1000 nM |
| Cc1ccc2cc1COCCCCNC(=O)c1ccc(c(N)c1)-c1ccnc(n1)N2 [Example 43, 1^2-amino-4^4-methyl-6-oxa-3,11-dia-za-2(4,2)-pyrimidina-1(1,4),4(1,3)-dibenzenacyclododecaphan-12-one] | > 10000 nM | 101 to 1000 nM | 1000 to 10000 nM | 1000 to 10000 nM |
| Nc1cc2ccc1-c1ccnc(n1)Nc1cc(F)c(F)c(c1)COCCCCNC2=O [Example 94, 1^2-amino-4^4,4^5-difluoro-6-oxa-3,11-diaza-2(4,2)-pyrimidina-1(1,4),4(1,3)-dibenzenacyclododecaphan-12-one] | > 10000 nM | 11 to 100 nM | 1000 to 10000 nM | 1000 to 10000 nM |
| CN1CCN(c2ccc3cc2COCCCCNC(=O)c2ccc(cc2)-c2ccnc(n2)N3)CC1 [Example 7, 4^4-(4-methylpiperazin-1-)-6-oxa-3,11-diaza-2(4,2)-pyrimidina-1(1,4),4(1,3)-dibenzenacyclododecaphan-12-one] | 101 to 1000 nM | 11 to 100 nM | 11 to 100 nM | 101 to 1000 nM |
| Nc1cc2ccc1-c1ccnc(n1)Nc1ccc(OCC3Cc4ccccc4C3)c(c1)COCCCCNC2=O [Example 123, 1^2-amino-4^4-((2,3-dihydro-1H-inden-2-yl)methoxy)-6-oxa-3,11-diaza-2(4,2)-pyrimidina-1(1,4),4(1,3)-dibenzenacyclododecaphan-12-one] | 1000 to 10000 nM | 11 to 100 nM | 1000 to 10000 nM | 1000 to 10000 nM |
| CC1(C)CCNC(=O)c2ccc(c(N)c2)-c2ccnc(n2)Nc2ccc(OC3CCCOC3)c(c2)COC1 (stereo not shown) [Example 168, 1^2-amino-8,8-dimethyl-4^4-((tetra-hydro-2H-pyran-3-yl)oxy)-6-oxa-3,11-diaza-2(4,2)-pyrimidina-1(1,4),4(1,3)-dibenzenacyclododecaphan-12-one] | > 10000 nM | 1000 to 10000 nM | 1000 to 10000 nM | > 10000 nM |
| Nc1cc2ccc1-c1ccnc(n1)Nc1ccc(OCC3Cc4ccccc4O3)c(c1)COCCCCNC2=O (stereo not shown) [Example 155, 1^2-amino-4^4-((2,3-dihydroxybenzo-furan-2-yl)methoxy)-6-oxa-3,11-di-aza-2(4,2)-pyrimidina-1(1,4),4(1,3)-dibenzenacyclododecaphan-12-one] | 1000 to 10000 nM | 11 to 100 nM | 101 to 1000 nM | 1000 to 10000 nM |
| CC1CCNC(=O)c2ccc(c(N)c2)-c2ccnc(n2)Nc2ccc(OCC3CCCCC3)c(c2)COC1 (stereo not shown) [Example 149, 1^2-amino-4^4-(cyclohexylmethoxy)-8-methyl-6-oxa-3,11-diaza-2(4,2)-pyrimidina-1(1,4),4(1,3)-dibenzena-cyclododecaphan-12-one] | > 10000 nM | 11 to 100 nM | 1000 to 10000 nM | 1000 to 10000 nM |
| Nc1cc2ccc1-c1ccnc(n1)Nc1ccc(Oc3cccc(F)c3)c(c1)COCCCCNC2=O [Example 102, 1^2-amino-4^4-(3-fluorophenoxy)-6-oxa-3,11-diaza-2(4,2)-pyrimidina-1(1,4),4(1,3)-dibenzenacyclodode-caphan-12-one] | > 10000 nM | 11 to 100 nM | 1000 to 10000 nM | 1000 to 10000 nM |
| O=C1NCCCCCc2cc(ccc2N2CCOCC2)Nc2nccc(n2)-c2ccc1cc2 [Example 32, 4^4-morpholin-3,11-diaza-2(4,2)-pyri-midina-1(1,4),4(1,3)-dibenzenacyclo-dodecaphan-11-one] | 101 to 1000 nM | 11 to 100 nM | < 10 nM | 101 to 1000 nM |
| CC(C)Oc1ccc2cc1COCC[C@@H](C)CNC(=O)c1ccc(c(N)c1)-c1ccnc(n1)N2 [Example 187, (R)-1^2-amino-4^4-isopropoxy-9-meth-yl-6-oxa-3,11-diaza-2(4,2)-pyri-midina-1(1,4),4(1,3)-dibenzenacyclo-dodecaphan-12-one] | 101 to 1000 nM | 11 to 100 nM | 11 to 100 nM | 101 to 1000 nM |
| O=C1NCCCCOCc2cc(ccc2N2CCOCC2)Nc2nccc(n2)-c2ccc1cc2C(F)(F)F [Example 19, 4^4-morpholin-1^2-trifluoromethyl-6-oxa-3,11-diaza-2(4,2)-pyrimi-dina-1(1,4),4(1,3)-dibenzenacyclododecaphan-12-one] | > 10000 nM | 1000 to 10000 nM | 1000 to 10000 nM | 1000 to 10000 nM |
